Experiments:
[1] = system: Human immunodeficiency virus 1; assay: Antiviral activity against wild type HIV1 3B infected in human C8166 cells assessed as inhibition of viral-induced cytopathogenicity after 3 days by syncytium formation assay; type: functional, organism-based; conditions: Human immunodeficiency virus 1, 3B, C8166, 72 h
[2] = system: Human immunodeficiency virus 1; assay: Antiviral activity against […] HIV1 A17 harboring reverse transcriptase K103N and Y181C mutant infected in human C8166 cells assessed as inhibition of viral-induced cytopathogenicity after 3 days by syncytium formation assay; type: functional, organism-based; conditions: Human immunodeficiency virus 1, A17, C8166, 72 h
[3] = Cytotoxicity against human C8166 cells by MTT assay; type: cell-based
[4] = Selectivity index, ratio of CC50 for human C8166 cells to EC50 for wild type HIV1 3B; type: toxicity, cell-based; conditions: read-out: Ratio CC50/EC50

Row | Structure (SMILES) | EC50 [1] [µM] | EC50 [2] [µM] | CC50 [3] [µM] | selectivity ratio [4]
1 | Cc1cc(S(N)(=O)=O)ccc1NC(=O)COc1ccc(Cl)cc1C(O)c1ccccc1Cl (racemic) | 1.3 | 20.4 | 32 | 24.6
2 | Cc1cc(S(N)(=O)=O)ccc1NC(=O)COc1ccc(Cl)cc1C(=O)c1cc(Cl)cc(C#N)c1 | 0.00069 | 0.0014 | > 387 | > 563000
3 | Cc1cc(S(N)(=O)=O)ccc1NC(=O)COc1ccc(Cl)cc1C(O)c1cc(Cl)cc(Br)c1 (racemic) | 0.54 | 7.79 | 22.9 | 42.4
4 | Cc1cc(S(N)(=O)=O)ccc1NC(=O)COc1ccc(Cl)cc1C(O)c1ccccc1 (racemic) | 1.12 | 16.5 | 33.4 | 29.9
5 | Cc1ccc(C(O)c2cc(Cl)ccc2OCC(=O)Nc2ccc(S(N)(=O)=O)cc2C)c(C)c1 (racemic) | 4.27 | 40.4 | 26.4 | 6.18
6 | Cc1cc(C)cc(C(O)c2cc(Cl)ccc2OCC(=O)Nc2ccc(S(N)(=O)=O)cc2C)c1 (racemic) | 0.18 | 2.08 | 29.4 | 166
7 | Cc1cc(S(N)(=O)=O)ccc1NC(=O)COc1ccc(Cl)cc1C(O)c1cccc(C)c1C (racemic) | 9.02 | 216 | 218 | 24.1
8 | Cc1cc(S(N)(=O)=O)ccc1NC(=O)COc1ccc(Cl)cc1C(O)c1cccc(F)c1 (racemic) | 0.48 | 6.61 | 37.6 | 78.5
9 | Cc1cc(S(N)(=O)=O)ccc1NC(=O)COc1ccc(Cl)cc1C(O)c1ccccc1C (racemic) | 1.21 | 20.8 | 33.9 | 28
10 | Cc1cccc(C(O)c2cc(Cl)ccc2OCC(=O)Nc2ccc(S(N)(=O)=O)cc2C)c1 (racemic) | 0.48 | 9.7 | 33.1 | 69
11 | Cc1cc(S(N)(=O)=O)ccc1NC(=O)COc1ccc(Cl)cc1C(O)c1ccc2ccccc2c1 (racemic) | 1.09 | 10.7 | 15.7 | 14.3
12 | Cc1ccc(C(O)c2cc(Cl)ccc2OCC(=O)Nc2ccc(S(N)(=O)=O)cc2C)cc1 (racemic) | 0.65 | 13.4 | 38.7 | 59.3
13 | Cc1ccc(C)c(C(O)c2cc(Cl)ccc2OCC(=O)Nc2ccc(S(N)(=O)=O)cc2C)c1 (racemic) | 0.81 | 14.3 | 35.5 | 43.7
14 | Cc1cc(S(N)(=O)=O)ccc1NC(=O)COc1ccc(Cl)cc1C(O)c1ccc(Cl)cc1Cl (racemic) | 2.92 | 33.6 | 39.9 | 13.7
15 | Cc1cn([C@H]2C[C@H](N=[N+]=[N-])[C@@H](CO)O2)c(=O)[nH]c1=O [ZIDOVUDINE] |  | 0.023 |  | 422000
16 | Cc1cc(S(N)(=O)=O)ccc1NC(=O)COc1ccc(Cl)cc1C(O)c1cccc2ccccc12 (racemic) | 0.39 | 8.47 | 31.1 | 80.1
17 | Cc1cc(S(N)(=O)=O)ccc1NC(=O)COc1ccc(Cl)cc1C(O)c1cccc(Cl)c1 (racemic) | 0.72 | 13 | 33.2 | 46.4
18 | Cc1cc(S(N)(=O)=O)ccc1NC(=O)COc1ccc(Cl)cc1C(O)c1cccc([N+](=O)[O-])c1 (racemic) | 0.12 | 4.34 | 36.9 | 313
19 | Cc1cc(S(N)(=O)=O)ccc1NC(=O)COc1ccc(Cl)cc1C(O)c1cc(Cl)ccc1Cl (racemic) | 1.06 | 9.58 | 36.2 | 34.2
20 | Cc1cc(S(N)(=O)=O)ccc1NC(=O)COc1ccc(Cl)cc1C(O)c1cc(Cl)cc(Cl)c1 (racemic) | 1.06 | 9.45 | 13.1 | 12.4
21 | Cc1cc(S(N)(=O)=O)ccc1NC(=O)COc1ccc(Cl)cc1C(O)c1ccc(Cl)c(Cl)c1 (racemic) | 2.15 | 31.6 | 24 | 11.2
22 | Cc1cc(S(N)(=O)=O)ccc1NC(=O)COc1ccc(Cl)cc1C(O)c1cc(Cl)cc(C#N)c1 (racemic) | 0.39 | 6.84 | 31.6 | 80.8

— ChEMBL document CHEMBL1811789, “Synthesis and biological evaluation of (±)-benzhydrol derivatives as potent non-nucleoside HIV-1 reverse transcriptase inhibitors” (Bioorg Med Chem, 2011)
